Measurements published in US20030130298A1, “Cd45 inhibitors” (priority 1999, published 2003).

How the values were obtained:
CD45 [1] = target: T1, CD45 (Homo sapiens, UniProt P08575); test: Phosphatase assay using lck 10-mer as substrate; type: biochemical; settings: lck carboxy-terminal peptide TEGQpYQPQP substrate, read-out: Ick IC50
T1 construct: purchased BIOMOL (Plymouth Meeting, P.A.)
T1 sequence (P08575 599-1306 limits assumed): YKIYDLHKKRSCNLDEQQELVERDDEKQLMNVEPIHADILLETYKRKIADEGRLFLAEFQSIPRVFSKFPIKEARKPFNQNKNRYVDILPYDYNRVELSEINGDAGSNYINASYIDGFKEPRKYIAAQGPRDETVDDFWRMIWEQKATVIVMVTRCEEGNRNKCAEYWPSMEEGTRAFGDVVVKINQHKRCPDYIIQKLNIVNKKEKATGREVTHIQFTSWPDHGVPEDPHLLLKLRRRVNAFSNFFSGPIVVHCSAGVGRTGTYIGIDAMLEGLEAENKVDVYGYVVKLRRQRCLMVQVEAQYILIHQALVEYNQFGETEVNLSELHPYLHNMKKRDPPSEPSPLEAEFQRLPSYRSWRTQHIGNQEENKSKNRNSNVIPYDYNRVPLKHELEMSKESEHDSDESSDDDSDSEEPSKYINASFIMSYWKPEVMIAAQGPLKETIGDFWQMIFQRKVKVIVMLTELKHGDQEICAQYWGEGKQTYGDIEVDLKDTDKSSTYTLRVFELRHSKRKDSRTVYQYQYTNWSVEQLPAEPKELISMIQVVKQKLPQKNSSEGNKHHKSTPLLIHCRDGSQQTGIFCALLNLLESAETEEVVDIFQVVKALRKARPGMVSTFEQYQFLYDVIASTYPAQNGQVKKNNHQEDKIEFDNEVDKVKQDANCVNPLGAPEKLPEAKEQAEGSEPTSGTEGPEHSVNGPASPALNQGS
Description: (§1) Potent inhibitors of CD45 have been discovered. Such inhibitors are useful for the treatment of various autoimmune disorders as well as for treatment of OGR. Inhibition of the phosphatase activity of CD45 by compounds of the present invention has been shown by incubating the cytosolic portion of CD45 with the compounds and p-nitrophenyl phosphate (pNPP), a phosphatase substrate. Spectrophotometric monitoring has shown that the liberation of p-nitrophenol from the substrate by CD45 is inhibited in the presence of the compounds disclosed herein. Inhibition of the phosphatase activity of CD45 by compounds of the present invention has also been shown using a p56^lckcarboxy-terminal phosphorylated peptide as a substrate.
Phosphatase activity was assayed in 96 well plates in a buffer containing final concentrations of 25 mM HEPES at pH 7.2, 5 mM DTT and 10 μg/mL BSA, using the lck carboxy-terminal peptide TEGQpYQPQP as the substrate (Cho, H., Krishnaraj, R., Itoh, M., Kitas, E., Bannwarth, W., Saito, H., Walsh, C. T. 1993. Substrate specificities of catalytic fragments of protein tyrosine phosphatases (HPTPb, LAR, and CD45) toward the phosphotyrosylpeptide substrates and thiophosphotyrosylated peptides as inhibitors. Protein Science 2:977-984). Compounds were tested in a range from 30 to 0.01 μM in a final concentration of 5% DMSO. Enzyme was incubated with substrate, with or without compound, at room temperature for 1.5 h. At the end of the incubation period, BIOMOL “Green Reagent” (BIOMOL, Plymouth Meeting, Pa.) was added to each well, the plates incubated at room temperature for 30 min and absorbance read at 620 nm.

CD45 [2] = target: T1, CD45; test: Phosphatase assay using pNPP as substrate; type: biochemical; settings: pH 7.0
Description: as §1
CD45 enzyme was obtained from BIOMOL (Plymouth Meeting, P.A.). Phosphatase activity was assayed in a buffer containing final concentrations of 25 mM imidazole at pH 7.0, 50 mM NaCl, 2.5 mM ethylenediaminetetraacetic acid (“EDTA”), 5 mM dithiothreitol (“DTT”) and 10 μg/mL bovine serum albumin (“BSA”) using pNPP as a substrate. […] Activity was measured by following the increase in absorbance at 405 nm using a SpectraMax Plus spectrophotometric plate reader (Molecular Devices, Sunnyvale, Calif.).

[3] = Cytotoxicity assay (Calcein-AM uptake); type: cell-based; settings: human, PHA-expanded T-cell lymphoblasts derived from PBMC, overnight incubation, Calcein-AM viability
Description: Calcein-AM (Molecular Probes, Eugene, Oreg.) uptake, as a quantitative measure of cell viability, was used to evaluate the toxic effect of compounds on T cells.
The T-cell lymphoblasts were purified by separation over Lymphoprep, plated at 2×10 ^5/well in a round bottom 96-well plate containing RPMI with compound and incubated overnight at 37° C. in an incubator containing 5% CO2. The dilution scheme and culture media were the same as those used in the T-cell proliferation assay. After the incubation period, cells were washed with Dulbecco's phosphate- buffered saline (D-PBS) and incubated with 1 μM Calcein-AM for 30-45 min in D-PBS as described in the technical sheet provided with The LIVE/DEAD Viability/Cytotoxicity Kit from Molecular Probes.

[4] = system: Peripheral blood mononuclear cells (T cells); test: T cell proliferation assay (anti-CD3 OKT3 activated PBMC, [3H]thymidine); type: cell-based; settings: Homo sapiens; PBMC activated with OKT3 30 ng/mL; read-out: T cell prolif. IC50
Description: Whole blood was obtained from healthy human blood donors. Peripheral blood mononuclear cells (“PBMC”) were isolated using Lymphoprep density-gradient centrifugation (Nycomed Amersham, Oslo, Norway), washed, counted and resuspended at 2×10^6 cells/mL in RPMI 1640 medium containing glutamine, 0.1 mg/mL gentamycin and 10% heat inactivated human serum. PBMC were transferred to 96-well plates (2×10^5 cells/well) containing compound or vehicle control, with the final concentration of DMSO not to exceed 0.3%, and incubated for 1 hour before addition of the activating anti-CD3 antibody, OKT3 (30 ng/mL). After 24 hours in culture, the cells were pulsed with [^3H]thymidine (1 μCi/well) overnight and harvested the next day onto 96-well Packard GF/C filter plates using a Packard Cell Harvester (Packard Instruments, Meriden, Conn.). The filter plate was dried, the bottom of the plate sealed, 25 μL of Microscint 20 scintillation fluid added to each well, the top of the plate sealed with TopSeal-A, and the plate counted on a Packard TopCount. The data from the TopCount is transferred into Excel 5 (Microsoft, Redmond, Wash.) and formatted for EC50 determination using Prism software (GraphPad Software, San Diego, Calif.).

| Compound | IC50 (CD45 [1]; pH 7.2, […]) [µM] | IC50 (CD45 [2]) [µM] | CC50 [3] [µM] | IC50 [4] [µM] | IC50 (CD45 [1]; pH 7.2, 1.5 h) [µM] |
| --- | --- | --- | --- | --- | --- |
| O=C1C(=O)c2ccoc2-c2ccccc21 [Example 3, naphtho[,1,2b]furan-4,5-dione] | 4.5 | 1.1 | 3.5 | – | – |
| O=C1C(=O)c2ncccc2-c2ccccc21 [Example 1, benzo[f]quinoline-5,6-dione] | – | 2.3 | 7 | 0.4 | > 30 |
| O=C1C(=O)c2ccsc2-c2ccccc21 [Example 4, naphtho[1,2-b]thiophene-4,5-dione] | – | 1.5 | 3.5 | – | > 30 |
| O=C1C(=O)c2cccnc2-c2ccccc21 [Example 2, benzo[h]quinoline-5,6-dione] | 3.1 | 1 | 2.4 | 0.24 | – |
